In patent US11459315B2, “Modulators of methyl modifying enzymes, compositions and uses thereof” (Constellation Pharmaceuticals, Inc., priority 2017, dated 2022):
Where two headings read alike, the source gives them in different places.

Tests used:
PRC2 containing wt EZH2 = PRC2 containing wt EZH2 (Homo sapiens (Human), UniProt Q15910); test: EZH2 residence time assay (100-fold dilution of pre-formed enzyme-inhibitor complex); format: biochemical
Experimental: EZH2 residence time assay: Compound residence times were assessed by monitoring the recovery of enzyme activity following a 100-fold dilution of pre-formed enzyme-inhibitor complex (dilution reaction), and comparing it to the activity of an undiluted control with the same final concentrations of all reagents (control reaction). Enzyme activity was measured by incorporation of ^3H-SAM into a biotinylated H3 peptide. […] For the control reaction, 0.202 nM PRC2 was pre-incubated with 1 μM activating peptide, 1.01 μM SAM, 1.01 μM ^3H-SAM, and compound at 6.06 times its Ki for 2 h in 138.6 μL of buffer, then the reaction was initiated by the addition of 1.4 μL 500 μM substrate peptide in water. Reactions were quenched at various time points spanning up to 10 hours, by transferring 8 μL aliquots from the reaction vessel to a plate containing 8 μL per well of STOP solution (50 mM Tris pH 8.5, 200 mM EDTA, 2 mM SAH). After the last time point, 12 μL of the quenched solutions were transferred to a streptavidin coated FlashPlate (PerkinElmer) containing 40 μL per well of STOP solution, incubated 1-8 h, washed, and read in a TopCount plate reader (PerkinElmer). A custom script was used to fit control reaction progress data to a straight line and dilution reaction progress data:
Where y is the product formed, t is the reaction time, vi is the initial velocity, vs is the steady state velocity, and kobs is the rate constant for the transition from the initial velocity phase of the curve to the steady state velocity phase of the curve. In fitting the dilution reaction progress data, vs was constrained to the slope of the line fitted to the control reaction progress data. The fitted value of kobs was then transformed into residence time:
Where τ is residence time, Ki is the inhibition constant, [EI] is the calculated equilibrium concentration of enzyme-inhibitor complex, [E] is the calculated equilibrium concentration of free enzyme, and [I] is the calculated equilibrium concentration of free inhibitor.

[1] = test system: H3K27me3 mark in HeLa cells (EZH2); test: H3K27me3 Alpha Hela Assay (AlphaLISA); format: cell-based; conditions: HeLa cell assay, Table 3 classes, read-out: EC50 Cellular Activity
Procedure, shortened: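 HeLa cells (1,000/well) treated with ten 3-fold compound doses for 72 h at 37 °C; lysates extracted and H3K27me3 detected by AlphaLISA with anti-K27me3 acceptor beads, biotinylated anti-H3 (3 nM) and streptavidin donor beads. EC50 from DMSO-normalized dose-response curves; duplicate plate assessed viability.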

Sequence of PRC2 containing wt EZH2 (Q15910 whole entry): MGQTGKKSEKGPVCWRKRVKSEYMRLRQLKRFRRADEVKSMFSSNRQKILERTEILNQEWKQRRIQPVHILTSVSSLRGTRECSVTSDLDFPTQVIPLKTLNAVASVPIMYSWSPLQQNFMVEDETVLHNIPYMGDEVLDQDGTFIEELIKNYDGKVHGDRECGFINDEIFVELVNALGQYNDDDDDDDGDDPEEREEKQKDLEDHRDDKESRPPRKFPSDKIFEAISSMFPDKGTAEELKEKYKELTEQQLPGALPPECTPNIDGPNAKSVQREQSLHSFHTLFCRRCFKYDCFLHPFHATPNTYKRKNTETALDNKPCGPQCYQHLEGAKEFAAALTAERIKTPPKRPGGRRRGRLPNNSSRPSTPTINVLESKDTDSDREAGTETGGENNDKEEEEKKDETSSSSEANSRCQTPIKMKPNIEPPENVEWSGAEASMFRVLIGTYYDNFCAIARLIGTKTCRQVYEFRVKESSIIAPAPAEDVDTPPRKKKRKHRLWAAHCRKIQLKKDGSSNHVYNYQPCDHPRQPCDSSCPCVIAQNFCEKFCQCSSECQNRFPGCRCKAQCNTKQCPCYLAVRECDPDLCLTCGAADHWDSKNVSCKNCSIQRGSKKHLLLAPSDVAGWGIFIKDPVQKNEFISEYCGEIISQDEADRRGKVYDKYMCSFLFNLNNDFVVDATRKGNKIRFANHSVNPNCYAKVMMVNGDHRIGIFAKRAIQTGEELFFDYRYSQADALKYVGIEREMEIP
Sequence of PRC2 containing wt EZH2 (O75530 whole entry partner): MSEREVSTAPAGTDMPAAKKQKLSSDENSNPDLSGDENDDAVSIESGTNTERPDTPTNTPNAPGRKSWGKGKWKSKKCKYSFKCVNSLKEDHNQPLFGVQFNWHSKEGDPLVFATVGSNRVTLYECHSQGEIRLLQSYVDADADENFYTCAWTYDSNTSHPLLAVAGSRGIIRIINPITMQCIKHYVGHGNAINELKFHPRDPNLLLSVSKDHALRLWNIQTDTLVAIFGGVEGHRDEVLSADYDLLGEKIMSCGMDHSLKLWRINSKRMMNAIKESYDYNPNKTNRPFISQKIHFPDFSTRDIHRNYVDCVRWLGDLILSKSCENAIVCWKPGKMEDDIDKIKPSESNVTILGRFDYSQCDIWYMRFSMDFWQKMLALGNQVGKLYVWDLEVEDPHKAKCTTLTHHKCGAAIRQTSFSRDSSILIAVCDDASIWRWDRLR
Sequence of PRC2 containing wt EZH2 (Q15022 whole entry partner): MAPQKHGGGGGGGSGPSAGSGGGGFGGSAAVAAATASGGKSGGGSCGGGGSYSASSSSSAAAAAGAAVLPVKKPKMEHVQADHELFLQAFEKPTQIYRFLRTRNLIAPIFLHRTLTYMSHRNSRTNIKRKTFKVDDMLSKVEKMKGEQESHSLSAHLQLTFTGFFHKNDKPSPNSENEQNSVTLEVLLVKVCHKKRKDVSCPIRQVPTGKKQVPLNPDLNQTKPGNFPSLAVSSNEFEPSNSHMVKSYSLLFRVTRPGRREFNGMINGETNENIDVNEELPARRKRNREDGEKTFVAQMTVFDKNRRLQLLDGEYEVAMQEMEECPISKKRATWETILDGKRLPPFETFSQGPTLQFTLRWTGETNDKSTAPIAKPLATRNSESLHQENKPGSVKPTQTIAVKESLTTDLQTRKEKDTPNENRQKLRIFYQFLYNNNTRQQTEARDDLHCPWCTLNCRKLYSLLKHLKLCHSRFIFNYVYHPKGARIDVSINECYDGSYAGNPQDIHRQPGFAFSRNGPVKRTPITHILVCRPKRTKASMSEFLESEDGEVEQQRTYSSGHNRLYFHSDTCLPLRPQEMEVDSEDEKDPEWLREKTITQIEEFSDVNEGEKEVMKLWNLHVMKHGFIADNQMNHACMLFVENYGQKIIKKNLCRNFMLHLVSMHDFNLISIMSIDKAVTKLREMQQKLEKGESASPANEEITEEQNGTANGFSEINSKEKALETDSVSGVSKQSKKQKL
Sequence of PRC2 containing wt EZH2 (Q09028 whole entry partner): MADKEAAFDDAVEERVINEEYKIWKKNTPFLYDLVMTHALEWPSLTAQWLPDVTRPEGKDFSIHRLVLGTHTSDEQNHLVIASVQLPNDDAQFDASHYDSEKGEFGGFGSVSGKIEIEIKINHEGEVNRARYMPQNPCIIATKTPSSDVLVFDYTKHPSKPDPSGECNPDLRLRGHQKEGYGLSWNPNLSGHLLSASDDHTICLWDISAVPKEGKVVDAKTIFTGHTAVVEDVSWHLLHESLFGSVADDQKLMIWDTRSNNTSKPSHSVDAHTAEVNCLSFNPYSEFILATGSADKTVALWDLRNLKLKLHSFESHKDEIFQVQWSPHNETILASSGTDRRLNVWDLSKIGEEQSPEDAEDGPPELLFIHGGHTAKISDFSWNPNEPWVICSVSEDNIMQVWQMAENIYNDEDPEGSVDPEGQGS
Sequence of PRC2 containing wt EZH2 (Q6ZN18 whole entry partner): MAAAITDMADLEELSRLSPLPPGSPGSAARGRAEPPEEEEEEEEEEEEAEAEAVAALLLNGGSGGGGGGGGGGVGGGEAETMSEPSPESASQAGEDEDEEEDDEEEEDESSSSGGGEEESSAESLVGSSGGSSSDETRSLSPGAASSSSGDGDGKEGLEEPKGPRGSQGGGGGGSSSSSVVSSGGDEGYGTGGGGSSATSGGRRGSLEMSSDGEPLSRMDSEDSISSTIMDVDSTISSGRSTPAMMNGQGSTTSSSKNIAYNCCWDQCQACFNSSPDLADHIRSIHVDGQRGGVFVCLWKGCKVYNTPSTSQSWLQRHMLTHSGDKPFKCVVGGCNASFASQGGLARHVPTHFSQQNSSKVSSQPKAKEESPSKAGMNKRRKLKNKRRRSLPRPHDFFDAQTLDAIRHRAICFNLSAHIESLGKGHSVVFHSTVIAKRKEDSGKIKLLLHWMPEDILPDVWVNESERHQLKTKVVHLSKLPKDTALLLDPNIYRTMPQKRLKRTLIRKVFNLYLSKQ

Cc1cc(Cl)c(CNC(=O)c2c(C)n([C@H](C)C3CCC(NC4(C)COC4)CC3)c3ccccc23)c(=O)[nH]1 (single isomer, unassigned) [drawing 202]
residence time (PRC2 containing wt EZH2): B (a t value of greater than 5 hours but less or equal than 35 hours)
EC50 [1]: 5 to 25 nM

CSc1cc(C)[nH]c(=O)c1CNC(=O)c1c(C)n([C@H](C)C2CCOCC2)c2ccccc12 [drawing 247]
residence time (PRC2 containing wt EZH2): 30 to 300 min
EC50 ([1]; Homo sapiens, HeLa): < 5 nM

Cc1cc(Cl)c(CNC(=O)c2c(C)n([C@H](C)C3OCC(NC4(C)COC4)CO3)c3ccccc23)c(=O)[nH]1 (single isomer, unassigned) [drawing 226]
residence time (PRC2 containing wt EZH2): B (a t value of greater than 5 hours but less or equal than 35 hours)
EC50 [1]: 5 to 25 nM

Cc1cc(Cl)c(CNC(=O)c2c(C)n([C@H](C)C3OCC(NC(C)(C)C)CO3)c3ccccc23)c(=O)[nH]1 (single isomer, unassigned) [drawing 221]
residence time (PRC2 containing wt EZH2; read-out: Residence Time): 30 to 300 min
EC50 ([1]; Homo sapiens, HeLa): 5 to 25 nM

Cc1cc(C)c(CNC(=O)c2c(C)n([C@H](C)C3CCC(NC4COC4)CC3)c3ccccc23)c(=O)[nH]1 (single isomer, unassigned) [drawing 210]
residence time (PRC2 containing wt EZH2): C (a t value of greater than 0.5 hours but less or equal than 5 hours)
EC50 [1]: 25 to 125 nM

Cc1cc(Cl)c(CNC(=O)c2c(C)n([C@H](C)C3CCOCC3)c3ccccc23)c(=O)[nH]1
residence time (PRC2 containing wt EZH2): < 30 min
EC50 ([1]; Homo sapiens, HeLa): 25 to 125 nM

CSc1cc(C)[nH]c(=O)c1CNC(=O)c1c(C)n([C@H](C)C2OCC(NC3(C)COC3)CO2)c2ccccc12 (single isomer, unassigned) [drawing 227]
residence time (PRC2 containing wt EZH2): A (value of greater than 35 hours)
EC50 [1]: < 5 nM

CSc1cc(C)[nH]c(=O)c1CNC(=O)c1c(C)n([C@H](C)C2CCC(NC3(C)COC3)CC2)c2ccccc12 (single isomer, unassigned) [drawing 206]
residence time (PRC2 containing wt EZH2): B (a t value of greater than 5 hours but less or equal than 35 hours)
EC50 [1]: 5 to 25 nM

CSc1cc(C)[nH]c(=O)c1CNC(=O)c1c(C)n([C@H](C)C2OCC(NC(C)(C)C)CO2)c2ccccc12 (single isomer, unassigned) [drawing 224]
residence time (PRC2 containing wt EZH2): A (value of greater than 35 hours)
EC50 [1]: < 5 nM

CSc1cc(C)[nH]c(=O)c1CNC(=O)c1c(C)n([C@H](C)C2CCN(C3CC3)CC2)c2ncccc12 [drawing 256]
residence time (PRC2 containing wt EZH2): 300 to 2100 min
EC50 ([1]; Homo sapiens, HeLa): < 5 nM

Cc1cc(Cl)c(CNC(=O)c2c(C)n([C@H](C)C3OCC(N(C)C)CO3)c3ccccc23)c(=O)[nH]1 (single isomer, unassigned) [drawing 229]
residence time (PRC2 containing wt EZH2; read-out: Residence Time): < 30 min
EC50 [1]: > 125 nM

Cc1cc(C)c(CNC(=O)c2c(C)n([C@H](C)C34CC(N(C)CC(F)(F)F)(C3)C4)c3ccccc23)c(=O)[nH]1
residence time (PRC2 containing wt EZH2; read-out: Residence Time): < 30 min
EC50 ([1]; Homo sapiens, HeLa): > 125 nM

COc1cc(C)[nH]c(=O)c1CNC(=O)c1c(C)n([C@H](C)C2CCC(NC3COC3)CC2)c2ccccc12 (single isomer, unassigned) [drawing 207]
residence time (PRC2 containing wt EZH2; read-out: Residence Time): < 30 min
EC50 [1]: > 125 nM

Cc1cc(Cl)c(CNC(=O)c2c(C)n([C@H](C)C3CCC(NC4COC4)CC3)c3ccccc23)c(=O)[nH]1 (single isomer, unassigned) [drawing 211]
residence time (PRC2 containing wt EZH2; read-out: Residence Time): < 30 min
EC50 [1]: > 125 nM

Cc1cc(C)c(CNC(=O)c2c(C)n([C@H](C)C3CCC(NC4(C)COC4)CC3)c3ccccc23)c(=O)[nH]1 (single isomer, unassigned) [drawing 203]
residence time (PRC2 containing wt EZH2): D (a t value of less or equal than 0.5 hours)
EC50 [1]: 25 to 125 nM

Cc1cc(C)c(CNC(=O)c2c(C)n([C@H](C)C3CCN(CC(F)(F)F)CC3)c3ccccc23)c(=O)[nH]1
residence time (PRC2 containing wt EZH2): < 30 min
EC50 ([1]; Homo sapiens, HeLa): 25 to 125 nM

CSc1cc(C)[nH]c(=O)c1CNC(=O)c1c(C)n([C@H](C)C2CCC(N3CC(F)C3)CC2)c2ccccc12 (single isomer, unassigned) [drawing 255]
residence time (PRC2 containing wt EZH2): C (a t value of greater than 0.5 hours but less or equal than 5 hours)
EC50 [1]: 5 to 25 nM

CSc1cc(C)[nH]c(=O)c1CNC(=O)c1c(C)n([C@H](C)C2OCC(N(C)C)CO2)c2ccccc12 (single isomer, unassigned) [drawing 231]
residence time (PRC2 containing wt EZH2): D (a t value of less or equal than 0.5 hours)
EC50 [1]: > 125 nM

COc1cc(C)[nH]c(=O)c1CNC(=O)c1c(C)n([C@H](C)C23CC(N(C)CC(F)(F)F)(C2)C3)c2ccccc12
residence time (PRC2 containing wt EZH2; read-out: Residence Time): 30 to 300 min
EC50 ([1]; Homo sapiens, HeLa): 25 to 125 nM

CSc1cc(C)[nH]c(=O)c1CNC(=O)c1c(C)n([C@H](C)C2CCC(N3CC(OC(F)F)C3)CC2)c2ncccc12 (single isomer, unassigned)
residence time (PRC2 containing wt EZH2; read-out: Residence Time): 300 to 2100 min
EC50 ([1]; Homo sapiens, HeLa): < 5 nM

CSc1cc(C)[nH]c(=O)c1CNC(=O)c1c(C)n([C@H](C)C2CCC(O)CC2)c2ccccc12 (single isomer, unassigned) [drawing 250]
residence time (PRC2 containing wt EZH2): B (a t value of greater than 5 hours but less or equal than 35 hours)
EC50 ([1]; Homo sapiens, HeLa): < 5 nM

CSc1cc(C)[nH]c(=O)c1CNC(=O)c1c(C)n([C@H](C)C2OCC(NC3(C)COC3)CO2)c2ccccc12 (single isomer, unassigned) [drawing 228]
residence time (PRC2 containing wt EZH2): D (a t value of less or equal than 0.5 hours)
EC50 [1]: > 125 nM
